# Measurements reported in US20250064845A1, “COMPOSITION COMPRISING FLAVIN ADENINE DINUCLEOTIDE (FAD), L-GSH, ATP AND MYRISTIC ACID, ALONE OR WITH A DRUG” (BIO EVEN, priority 2023, published 2025).
# Tests used:
# [1] = tested on: Pan02 transplanted pancreatic tumor; conditions: Pan02 tumor-bearing mice
# Method: Each mouse was subcutaneously treated with Pan02 cell suspension (5*10^5 cells) in the right axilla of the forelimb. […] Body weight was weighed every three days. The volume of the solid tumor was measured using a digital caliper every three days. The survival of animals was monitored and recorded daily.
# • The Pan02 mouse pancreatic cancer line was purchased from Shanghai Enzyme Research Biotechnology Co., Ltd. (Shanghai, China, Cell line No.: CC-Y2144) and stored at −80° C. after arrival. The Pan02 cells were cultured in DMEM supplemented with 10% FBS (v/v), 100 U/ml penicillin G (Sigma-Aldrich, USA), and 100 μg/mL streptomycin (Sigma-Aldrich, USA). The cultures were maintained in a humidified incubator at 37° C. and 5% CO2.
# • Different test drugs were administered intravenously (i.v.) and intraperitoneally (i.p.) once every other day at 10:00 am. A or B drugs were injected into the tail vein first, and 5-FU was injected intraperitoneally 24 h later.
# • Each mouse was subcutaneously treated with 0.1 mL cell suspension (5*10^5 cells) in the right axilla of the forelimb. When the tumor size increases to 100 mm^3-150 mm^3, mice were randomly divided into treatment groups: the model group (n=10), the A group (n=10), the B group (n=10), the 5-FU group (1.5 mg/kg, n=10), the A+5-FU group (1.5 mg/kg, n=10), the B+5-FU group (1.5 mg/kg, n=10) (Table 1).
# • Body weight was weighed every three days. The length and width of the solid tumor was measured with a digital caliper every three days. Tumor volume was calculated by the modified ellipsoidal formula: V =n/6 x (length x width2). The survival time of animals was monitored and recorded daily. […] The percent survival (%) was calculated using the following equations: percent survival (%)=[(10-numbers of mice died in each group)/10]*100%.
# [2] = tested on: H22 transplanted tumor; conditions: H22 tumor-bearing mice
# Method: Body weight was weighed every three days.
# • Species: Rodent; Strain: BALB/c mice; Grade: SPF; Gender: Female; Age: 5-6 weeks.
# • The H22 mouse hepatoma cell line was purchased from Wuhan Procell Life Technology Co., Ltd. (Wuhan, China, Contract No.: XD-000-2022-03-30-0029) and stored at −80° C. after arrival.
# Ascitic tumor fluid was then diluted with matrigel to adjust the cell concentration to 2*10^7 cells/mL.
structure (smiles),measurement,setting,value
"O=c1[nH]cc(F)c(=O)[nH]1 [Composition 5-FU, 5-fluorouracil]",tumor volume / antitumor effect,"[1]; 82 days, 5-FU 1.5 mg/kg",significantly decreased tumor volume
same,mortality rate of mice on the 82nd day,"[1]; A or B 100 μL i.v., 5-FU 1.5 mg/kg i.p., once every other day, n=10",90%
same,median survival time,"[1]; A or B 100 μL i.v., 5-FU 1.5 mg/kg i.p., once every other day, test 82 days, longer survival defaulted as 82 days",53.5 days
same,mortality rate of mice on the 22nd day,[2]; 5-FU alone 2.5 mg/kg i.p. once every two days,30%
same,median survival time,"[2]; 5-FU alone 2.5 mg/kg, longer survival defaulted as 22 days",22 days
